Experimental data reported in US20090192327A1, “METHODS AND COMPOSITIONS FOR INHIBITING BIOFILMS” (Sequoia Sciences, Inc., priority 2004, published 2009).
Several values for one entry are separate records, joined by “and”; a condition that tells them apart may be missing. Equal values may be shown once. Read-outs that look alike come from different tables or passages of the source.

Tests used:
[1] = tested on: Pseudomonas aeruginosa; assay: Minimum inhibitory concentration (NCCLS broth microdilution); assay type: cell-based; conditions: LB media with 0.2% glucose; 35° C. for 20-24 hours
Procedure: The minimum inhibitory concentrations (MICs) for several of the specific biofilm inhibitors described herein were determined against several targets, including P. aeruginosa, E. coli, and Staphylococcus aureus. The MICs of the biofilm inhibitors were measured using the reference broth microdilution method recommended by the National Committee for Clinical Laboratory Standards (NCCLS). […] In each assay, positive and negative controls were employed, wherein the positive control included an antimicrobial agent with a known potency range that was used to ensure proper assay performance. The negative control, generally, included the solvent in which the test compounds were dissolved. In this example, the wells correlating to the negative controls included ethanol (without any biofilm inhibitors). […] Thus, each well contained a final volume of approximately 200 μl (not including the volume of the concentrated inhibitor). […] After bacterial inoculation and loading of test and control samples, the plate was incubated in an ambient air environment at 35° C. for 20-24 hours. The plate was subsequently rinsed, stained, and analyzed in accordance with the procedures described in Example 1. […] The minimum inhibitory concentrations were calculated as the lowest inhibitor concentration at which biofilm inhibition was observed.

[2] = tested on: Pseudomonas aeruginosa; assay: Microtiter plate biofilm inhibition assay (crystal violet); assay type: cell-based; conditions: 10 μg/ml; LB media with 0.2% glucose; 24 hours at room temperature; average of three wells
Procedure: A microtiter plate assay was used to quantitatively measure the effect each tested compound had on the ability of bacteria to form a biofilm. In this example, a concentrated solution of each compound tested was loaded separately into three separate wells of a polystyrene microtiter plate. In addition, each assay included triplicate wells correlating to negative and positive controls. For the positive controls, biofilm inhibitors of known activity were used, whereas no inhibitors were added to wells correlating to negative controls. […] Thus, each well contained a final volume of approximately 200 μl (not including the volume of the concentrated inhibitor). […] The microtiter plates were then placed on a shaker for 24 hours at room temperature. After the 24 hour incubation period, the microtiter plate was removed from the shaker, rinsed, and stained. During the rinsing step, the test compound, media, and bacterial inoculum solution was drained from the plate, approximately 300 μl of 0.1M phosphate buffered saline (PBS) was added to each well, which was subsequently drained from the plate. The rinsing step removed any suspended cells from the assay. 0.1% crystal violet stain was added to each well for approximately 20 minutes. Next, the crystal violet solution was drained from the microtiter plate. The plate was rinsed with PBS as described above four (4) times to remove any excess stain from the plate. Following the PBS rinsing steps, the plate was eluted with 250 μl/well of ethanol, which improved the detection of the stain. The plate was immediately analyzed spectrophotometrically at 540 nm using a microtiter plate reader. The inhibitory effect each compound had on the bacteria's ability to form a biofilm on the surface of each well was determined as follows: The absorbance values observed for each set of three (3) wells correlating with a test compound or control were averaged. The average absorbance value for each test compound was compared to the average absorbance value of the negative control (the positive control was employed to verify proper assay function). In general, biofilm inhibition activity is inversely proportional to absorbance values, whereby, for example, low absorbance values correlate with significant inhibition activity and high absorbance values correlate with small or no inhibition activity. The approximate percent inhibition observed for each compound was calculated by comparing the average absorbance value for each test compound to the average absorbance value for the negative controls. Table 2 summarizes the average percent inhibition observed for the tested compounds listed against biofilms generated by Pseudomonas aeruginosa.

[3] = tested on: Pseudomonas aeruginosa strain PAO 1; assay: Rotating disk reactor biofilm test in combination with tobramycin; assay type: cell-based; conditions: 48 hours biofilm; compound 110 approximately 100 μg/mL for 24 hours; tobramycin 100 μg/mL for two hours; polystyrene coupons
Procedure: In this example, compound 110 was tested for biofilm inhibition with Pseudomonas aeruginosa in combination with Tobramycin. Specifically, biofilm formation of P. aeruginosa was evaluated using a standardized biofilm method with a rotating disk reactor (RDR), which is also known as “ASTM Standard Method #E-2196-02.” The rotating disk reactor consisted of a one-liter glass beaker fitted with a drain spout. The bottom of the vessel contained a magnetically driven rotor with six 1.27 cm diameter coupons constructed from polystyrene. The rotor consisted of a star-head magnetic stir bar upon which a disk was affixed to hold the coupons. The vessel (with the stir bar) was placed on a stir plate and rotated to provide fluid shear. A nutrient solution (AB Trace Medium with 0.3 mM glucose, see Table 5 below for specific formulation) was added through a stopper in the top of the reactor at a flow rate of 5 mL/min. The reactor volume was approximately 180 mL. At a volume of 180 mL, the residence time of the reactors was 36 minutes. The reactors were operated at room temperature (c.a. 26° C.). In this example, two RDRs were operated in parallel with one receiving compound 110 and the other serving as an untreated control. […] The plates were incubated for 24 hours at 37° C. before colony forming units (CFU) were determined.

[4] = tested on: Escherichia coli; assay: Minimum inhibitory concentration (NCCLS broth microdilution); assay type: cell-based; conditions: LB media with 0.2% glucose; 35° C. for 20-24 hours
Procedure: (§1) The minimum inhibitory concentrations (MICs) for several of the specific biofilm inhibitors described herein were determined against several targets, including P. aeruginosa, E. coli, and Staphylococcus aureus. The MICs of the biofilm inhibitors were measured using the reference broth microdilution method recommended by the National Committee for Clinical Laboratory Standards (NCCLS).
(§2) […]. The negative control, generally, included the solvent in which the test compounds were dissolved. In this example, the wells correlating to the negative controls included ethanol (without any biofilm inhibitors).
(§3) In this example, 150 μl of sterile media was added to each well (LB media with 0.2% glucose), along with appropriate volumes of concentrated solutions of the inhibitors to be tested, followed by 50 μl of bacterial inoculum. Thus, each well contained a final volume of approximately 200 μl (not including the volume of the concentrated inhibitor). […]. The plate was subsequently rinsed, stained, and analyzed in accordance with the procedures described in Example 1.
(§4) Tables 7, 8, and 9 summarize the data observed and, specifically, the MICs calculated for the several compounds referenced therein against P. aeruginosa, E. coli, and S. aureus, respectively. The minimum inhibitory concentrations were calculated as the lowest inhibitor concentration at which biofilm inhibition was observed.

[5] = tested on: Staphylococcus aureus; assay: as above; assay type: cell-based; conditions: LB media with 0.2% glucose; 35° C. for 20-24 hours
Procedure: as §1, §2, §3, §4

[6] = tested on: P. aeruginosa; conditions: 10 μg/mL
Procedure: In general, flow cell analysis begins by inoculating a microorganism into test and control flow cells along with the appropriate growth media (which may vary depending upon the organism involved). The microorganisms are maintained in the flow cells until they have produced biofilms having the desired coverage and thickness. Thereafter, the test flow cells are treated with appropriate concentrations of test inhibitors. […] Such negative controls may be used as reference points when measuring biofilm inhibition activity.
After the appropriate flow cells are treated with the test inhibitors, Live/Dead stain is applied to each flow cell for approximately 45 minutes. Any currently-available Live/Dead stain may be employed in this procedure, such as LIVE BacLight™ Bacterial Gram stain (Molecular Probes, Inc., Eugene, Oreg., USA). The biofilm is subsequently rinsed with sterile media to remove excess stain, and the sample is transferred to a confocal microscope for imaging. The Live/Dead stain differentially stains the bacterial cells with green for Live and red for Dead. In a flow cell environment, it is generally understood that bacteria require the presence of biofilms to propagate. Accordingly, the activity of a biofilm inhibitor may be indirectly measured by comparing the number of live bacterial cells included in a flow cell that contained a test inhibitor to that of a negative control.
The negative control flow cells included the inoculum in LB media with 0.2% glucose without any inhibitors. […] The test and control cells were subsequently stained and analyzed as described above.
In this example, the number of live colony forming units (CFU) detected in the sample flow cells were compared to that of the negative control to indirectly measure biofilm inhibition.

[7] = live CFU compared to negative control flow cell

| Compound | MIC (μg/mL) - Pseudomonas aeruginosa [1] [µg/mL] | Biofilm Inhibition- Pseudomonas aeruginosa [2] [%] | further results |
| --- | --- | --- | --- |
| NC[C@H]1O[C@H](O[C@H]2[C@H](O)[C@@H](O[C@H]3O[C@H](CO)[C@@H](O)[C@H](N)[C@H]3O)[C@H](N)C[C@@H]2N)[C@H](N)C[C@@H]1O [Tobramycin, reference compound] |  |  | CFU (in log 10) [3]: 6.1 CFU (in log 10) |
| CC1(C)CC[C@]2(C(=O)O)CC[C@]3(C)C(=CC[C@@H]4[C@@]5(C)CC[C@H](O)C(C)(C)[C@@H]5CC[C@]43C)[C@@H]2C1 [Compound 225] |  |  | MIC (μg/mL) - Escherichia coli [4]: >10 µg/mL |
| C[C@@H]1[C@H]2C3=CC[C@@H]4[C@@]5(C)CC[C@H](OC(=O)/C=C\c6ccc(O)cc6)C(C)(C)[C@@H]5CC[C@@]4(C)[C@]3(C)CC[C@@]2(C(=O)O)CC[C@]1(C)O (relative stereo) [Compound 188, 3β-O-cis-p-coumaroyl-20β-hydroxy-12-ursen-28-oic acid] | >10 |  |  |
| C[C@H]1[C@H](CO)C[C@@H](C(=O)O)C2CC[C@]3(C)C(=CCC4[C@@]5(C)CC[C@H](O)C(C)(C)C5CC[C@]43C)[C@@H]21 (some centres unmarked) [Compound 99] | >10 | 30 | MIC (μg/mL) - Staphylococcus aureus [5]: >32 µg/mL |
| COc1cc(/C=C/C(=O)OC2C(O)CC3(C)C(CCC4(C)C3CC=C3C5C(C)C(C)CCC5(C(=O)O)CCC34C)C2(C)C)ccc1O (stereo not drawn) [Compound 116, 3α-O-trans-feruloyl-2α-hydroxy-12-ursen-28-oic acid] | >10 |  | Flow Cell with Compound 116 (CFU), Average ([6]; LB media with 0.2% glucose, applied approximately 4 hours after inoculum, average): 1.76E+06 CFU; Flow Cell with Compound 116 (CFU), single flow cell ([6]; LB media with 0.2% glucose, applied approximately 4 hours after inoculum, individual values): 2.06E+06 CFU and 1.46E+06 CFU; Log Reduction [6, 7]: 0.28; Percent Reduction [6, 7]: 47%; Percent Reduction ([6]; live CFU compared to negative control flow cell, listed as compound 116): ~47% |

Continued, in another order:

| MIC (μg/mL) - Pseudomonas aeruginosa [1] [µg/mL] | Compound | Biofilm Inhibition- Pseudomonas aeruginosa [2] [%] | further results |
| --- | --- | --- | --- |
| >10 | CC1(C)C[C@@H](C(=O)O)C2CCC3C(=CCC4C3(C)CCC3C4(C)C[C@@H](O)[C@H](O)C3(C)C)[C@@H]2C1 (some centres unmarked) [Compound 107] | 46 |  |
| >10 | C[C@@H]1[C@H]2C3=CCC4[C@@]5(C)CC[C@H](O)C(C)(C)C5CC[C@@]4(C)[C@]3(C)CC[C@@]2(C(=O)O)CC[C@]1(C)O (some centres unmarked) [Compound 195] | 25 | MIC (μg/mL) - Staphylococcus aureus [5]: >8 µg/mL |
| >10 | C[C@@H]1C[C@@H](C(=O)O)C2CC[C@]3(C)C(=CCC4[C@@]5(C)C[C@@H](O)[C@H](O)C(C)(C)C5CC[C@]43C)[C@@H]2[C@]1(C)O (some centres unmarked) [Compound 192] | 32 |  |
| >10 | C[C@H]1[C@H](C)CC[C@]2(C(=O)O)CCC3C(=CCC4[C@@]3(C)CCC3C(C)(C)[C@@H](OC(=O)/C=C/c5ccc(O)cc5)[C@H](O)C[C@@]34C)[C@H]12 (some centres unmarked) [Compound 189] | 35 |  |
| >10 | C[C@@H]1CC[C@]2(C(=O)O)CC[C@]3(C)C(=CCC4[C@@]5(C)C[C@@H](O)[C@H](O)C(C)(C)C5CC[C@]43C)[C@@H]2[C@]1(C)O (some centres unmarked) [Compound 203] | 43 |  |
